Experimental findings from patent US20200399238A1, “THERAPEUTIC AURONES” (MIDDLE TENNESSEE STATE UNIVERSITY, priority 2016, published 2020) are described below.

Where two headings read alike, the source gives them in different places.

Series [1] deals with Trypanosoma brucei brucei 427 cells. Put plainly: T. brucei culture and assay (PrestoBlue). Type of series: cell-based. The settings on record: Trypanosoma brucei; Table 1; mean of 2(+) independent trials; read-out: IC50 T. brucei.
Series [2] concerns Leishmania amazonensis promastigotes expressing beta-lactamase. The experiment in a line: microbe, parasite or virus in culture. The following applies: Leishmania amazonensis, read-out: IC50 L. amaz. Type of series: cell-based.
For series [3], the system named is rat skeletal muscle cell line, L6. The experiment in a line: cells. The settings on record: Rattus norvegicus; Table 1; read-out: IC50 Toxicity (L6). The class given is cell-based.
The test system of series [4] is C. glabrata (ATCC strain 66032). Put plainly: Antifungal microdilution broth assay (PrestoBlue), C. glabrata. Type of series: cell-based, Candida glabrata. The following applies: Nakaseomyces glabratus, ATCC66032; Table 5. The procedure: (§1) Sigma-Aldrich) was used as the base medium for testing. […] solution of morpholinepropanesulfonic acid (MOPS; Sigma-Aldrich) was added to the RPMI to a final concentration of 0.165 M for buffering (RPMI-MOPS). This medium was adjusted to a pH of 7.0 with 10 M NaOH and filter sterilized. C. albicans (ATCC strain 90028), C. [NT] strain 66032), and C. tropicalis (ATCC strain 750) were cultured on potato dextrose agar (Sigma-Aldrich) plates, and incubated at 35° C. for 24 hours. For antifungal testing, overnight colonies were adjusted to 1.5×10^3 cells/mL, hereafter referred to as the test inoculum. […] Reduction of the compound from resazurin to resorufin is proportional to the number of metabolically active cells and can be quantified by measuring relative fluorescence units (RFUs). […] PrestoBlue was added to a final concentration of 10% in each well and fluorescence read at 560 nm excitation and 590 nm emission, per manufacturer instructions, using a SpectraMax M2e spectrophotometer (Molecular Devices, LLC, Sunnyvale, Calif.). […] The calculated Z', as described below, was compared to RFU readings and the optimal PrestoBlue incubation time was determined to be 75 minutes. IC50 determination was calculated using GraphPad Prism version 7.01 for Windows (GraphPad Software, Inc., La Jolla, Calif.) from the RFUs at dilution points. […]
For orientation: Broth dilution looks for growth in wells or tubes with falling amounts of substance.

The test system of series [5] is C. tropicalis (ATCC strain 750). The experiment in a line: Antifungal microdilution broth assay (PrestoBlue), C. tropicalis. Type of series: cell-based. The following applies: Candida tropicalis, ATCC750; Table 5. The procedure: as §1
Series [6] relates to Cryptococcus neoformans (Cn). The experiment in a line: CLSI micro-dilution inhibition / MIC, Cryptococcus neoformans. Type of series: cell-based. The settings on record: running text b175, read-out: MIC against Cryptococcus neoformans. On the procedure: C. neoformans (strain 1199s) was prepared following CLSI guidelines for the organism (CLSI, Reference Method for Broth Dilution Antifungal Susceptibility Testing of Yeasts, Approved Standard-Third. Edition, Clinical Laboratory Standards Institute, Wayne, Pa., 2008).
The A27-M2 CLSI standard micro-dilution method was used to screen an aurone library (MTSU Department of Chemistry) for inhibition of Cryptococcus neoformans (Cn). Each aurone was screened in triplicate. […] Toxicity assays were conducted on human THP1 macrophages and L6 rat fibroblasts.
The inhibition of Cn strains and C. gattii strains by Aurone 9051 (also referred to as “Aurone X”) was characterized in different medias (including RPMI 1640 (Standard), RPMI 1640+MOPS, Asparagine media, minimal media, or yeast extract peptone dextrose (YPD) media), against other serotypes and strains, and at different cell concentrations. Synergy of the compounds with current drugs was characterized, and a growth curve experiment was conducted.

The subject of series [7] is Trypanosoma cruzi Tulahuen cells expressing beta-galactosidase. The experiment in a line: T. cruzi intracellular assay (beta-galactosidase, L6 host cells). The settings on record: Trypanosoma cruzi, TULAHUEN, intracellular assay.
The subject of another series is IL-1β. Put plainly: Cytokine response by ELISA, IL-1β. The class given is cell-based, human. The settings on record: LPS-stimulated THP-1, ELISA. On the procedure:
Dexamethasone is a synthetic glucocorticoid that suppresses LPS-induced pro-inflammatory cytokine expression and was used as a control (Abraham, Lawrence et al. 2006). Supernatants were collected for human cytokine ELISAs and the manufacturer's protocol was followed to assess the cytokine response. Cells remaining after the supernatant collection were tested for relative viability by Alamar Blue cytotoxicity assay as previously described.
(In general: ELISA stands for enzyme-linked immunosorbent assay.)

In a further series the test system is NO production. Put plainly: NO assay (Griess, nitrite), RAW 264.7. Type of series: cell-based, murine. The settings on record: LPS-stimulated RAW264.7, 24 h. The procedure: Nitrite concentration in culture media of cells exposed to the indicated treatments was determined as an estimate of NO production with Griess reagent using a nitrate/nitrite colorimetric assay kit (Cayman Chemical Company, USA) according to the manufacturer's protocol.

Broadly, the IC50 is the point on the concentration scale where inhibition reaches its midpoint. What is called MIC is the least concentration at which growth counts as inhibited. As usually defined, the melting point is the temperature of the solid-liquid transition. `COc1ccc(/C=C2\Oc3c(ccc(O)c3O)C2=O)cc1O` [Aurone 1009, (Z)-6,7-dihydroxy-2-(3-hydroxy-4-methoxybenzylidene)benzofuran-3(2H)-one] returned a melting point of 275 to 280 °C. The IC50 in series [1] amounted to 18.8 µM. Further, in series [2], the concentration for half-maximal inhibition (IC50) was 9.63 µM. Also, the IC50 in series [3] is 45 µM. Also, 11 µM corresponded to half-maximal inhibition in [4] (IC50). Also, 10 µM corresponded to half-maximal inhibition in series [5] (IC50). Further, in series [6], the MIC was found to be 30 µM. Besides, in [7] (read-out: IC50 T. cruzi, Table 1, mean of 2(+) trials (^c one trial)), the IC50 was more than 50 µM. Further, the IC50 in [7] (read-out: IC50 T. cruzi, Table 2, mean of 2(+) independent trials) is more than 50 µM.

Turning to `O=C1/C(=C/c2ccc(CO)o2)Oc2ccccc21` [aurone 1], the “reduction of IL-1β expression” value in the series with IL-1β is reported as 98%. Moreover, in the series on NO production, the “production of NO (nitrite in supernatants)” value is reported as “significantly reduced”.
